Patent US9409905B2, “Antibacterial compounds and methods for use” (PTC THERAPEUTICS, INC., priority 2011, dated 2016)

Experiments:
[1] = test system: Escherichia coli (E. coli) BAS849; test: Antibacterial activity, microbroth dilution MIC (Table 1); type: cell-based; settings: microbroth dilution, super sensitive Gram-negative E. coli BAS849, read-out: MIC, BAS849
How it was run: (§1)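 Lowest concentration stopping macroscopically visible growth under test conditions, by broth microdilution, defines the MIC (μg/mL).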

[2] = test system: Staphylococcus aureus (S. aureus) 29213; test: as above; type: cell-based; settings: microbroth dilution, Gram-positive S. aureus 29213, read-out: MIC, 29213
How it was run: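 Values are MICs (μg/mL): the smallest drug amount at which macroscopically visible bacterial growth is absent under assay conditions, from a microdilution method in broth.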

E. coli 25922 = test: as above; type: cell-based, Escherichia coli; settings: Escherichia coli; microbroth dilution; control Gram-negative E. coli 25922 strain; read-out: MIC, 25922
How it was run: as §1

E. coli LZ3111 = test: Antibacterial activity, MIC, quinolone resistant strain (Table 2); type: cell-based; settings: Escherichia coli, LZ3111, read-out: MIC LZ3111
How it was run: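 Lowest concentration giving no macroscopically visible growth was taken as the MIC (μg/mL) after microbroth dilution testing.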

[3] = test system: Acinetobacter baumannii (A. baumannii) BAA747; test: Antibacterial activity, MIC (Table 4); type: cell-based; settings: A. baumannii BAA747, read-out: MIC, BAA747
How it was run: (§2)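 The resistant panel comprises multi-drug resistant clinical isolates. All strains were tested by microbroth dilution, with the MIC in μg/mL taken as the lowest concentration that prevented macroscopically visible growth.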

[4] = test system: Klebsiella pneumoniae (K. pneumoniae) 35657; test: Antibacterial activity, MIC (Table 4); type: cell-based; settings: K. pneumoniae 35657, read-out: MIC, 35657
How it was run: as §2

A. baumannii MXX2240 = test: Antibacterial activity, MIC, resistant strain (Table 4); type: cell-based; settings: Acinetobacter baumannii, MXX2240; resistant A. baumannii MMX2240, multi-drug resistant clinical isolate; read-out: MIC, MMX2240
How it was run: as §2

K. pneumoniae MXX1232 = test: as above; type: cell-based; settings: Klebsiella pneumoniae, MXX1232; resistant K. pneumoniae MMX1232, multi-drug resistant clinical isolate; read-out: MIC, MMX1232
How it was run: as §2

[5] = test system: Pseudomonas aeruginosa (P. aeruginosa) 27853; test: Antibacterial activity, MIC (Table 5); type: cell-based; settings: P. aeruginosa 27853, read-out: MIC, 27853
How it was run: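 MIC in μg/mL from broth microdilution; endpoint is the lowest drug level giving no visible growth.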

Measured: MIC

Cc1c(-c2ccc3cc[nH]c3n2)[nH]c(=O)c(C(=O)O)c1O [Cpd 434, 4-hydroxy-5-methyl-2-oxo-6-(1H-pyrrolo[2,3-b]pyridin-6-yl)-1,2-dihydropyridine-3-carboxylic acid]
12.5 to 150 µg/mL: all assays above

CCc1ccc2[nH]c(-c3[nH]c(=O)c(C(=O)O)c(O)c3C)cc2c1 [Cpd 386, 6-(5-ethyl-1H-indol-2-yl)-4-hydroxy-5-methyl-2-oxo-1,2-dihydropyridine-3-carboxylic acid]
3.5 to 12.5 µg/mL: [1]
12.5 to 150 µg/mL: all other assays above

Cn1ccc2cc(-c3[nH]c(=O)c(C(=O)O)c(O)c3Cl)ccc21 [Cpd 376, 5-chloro-4-hydroxy-6-(1-methyl-1H-indol-5-yl)-2-oxo-1,2-dihydropyridine-3-carboxylic acid]
3.5 to 12.5 µg/mL: [1]
12.5 to 150 µg/mL: all other assays above

CCc1c(-c2ccc3c(c2)cc2n3CC(N(C)CC)C2)[nH]c(=O)c(C(=O)O)c1O (stereo not drawn) [Cpd 419, 5-ethyl-6-(2-(ethyl(methyl)amino)-2,3-dihydro-1H-pyrrolo[1,2-a]indol-7-yl)-4-hydroxy-2-oxo-1,2-dihydropyridine-3-carboxylic acid]
1 to 3.5 µg/mL: E. coli LZ3111
12.5 to 150 µg/mL: K. pneumoniae MXX1232 | [5]
< 1 µg/mL: [1]
3.5 to 12.5 µg/mL: all other assays above

CCc1c(-c2cn(C)c3ccccc23)[nH]c(=O)c(C(=O)O)c1O [Cpd 14, 5-ethyl-4-hydroxy-6-(1-methyl-1H-indol-3-yl)-2-oxo-1,2-dihydropyridine-3-carboxylic acid]
1 to 3.5 µg/mL: [1]
3.5 to 12.5 µg/mL: [2]
12.5 to 150 µg/mL: all other assays above

CCc1c(-c2cc3cc(F)c(C)cc3[nH]2)[nH]c(=O)c(C(=O)O)c1O [Cpd 385, 5-ethyl-6-(5-fluoro-6-methyl-1H-indol-2-yl)-4-hydroxy-2-oxo-1,2-dihydropyridine-3-carboxylic acid]
3.5 to 12.5 µg/mL: [2]
< 1 µg/mL: [1]
12.5 to 150 µg/mL: all other assays above

CCc1c(-c2ccc3c(c2)c(F)c(CNC(C)C)n3C)[nH]c(=O)c(C(=O)O)c1O [Cpd 370, 5-ethyl-6-(3-fluoro-2-((isopropylamino)methyl)-1-methyl-1H-indol-5-yl)-4-hydroxy-2-oxo-1,2-dihydropyridine-3-carboxylic acid]
1 to 3.5 µg/mL: [3]
12.5 to 150 µg/mL: K. pneumoniae MXX1232 | [5]
< 1 µg/mL: [1] | E. coli 25922
3.5 to 12.5 µg/mL: all other assays above

Cc1c(-c2ccc3[nH]ncc3c2)[nH]c(=O)c(C(=O)O)c1O [Cpd 398, 4-hydroxy-6-(1H-indazol-5-yl)-5-methyl-2-oxo-1,2-dihydropyridine-3-carboxylic acid]
3.5 to 12.5 µg/mL: E. coli LZ3111
12.5 to 150 µg/mL: all other assays above

CCc1c(-c2ccc3c4c([nH]c3c2)CN(C(C)C)CC4)[nH]c(=O)c(C(=O)O)c1O [Cpd 449, 5-ethyl-4-hydroxy-6-(2-isopropyl-2,3,4,9-tetrahydro-1H-pyrido[3,4-b]indol-7-yl)-2-oxo-1,2-dihydropyridine-3-carboxylic acid]
12.5 to 150 µg/mL: [2] | K. pneumoniae MXX1232 | [5]
3.5 to 12.5 µg/mL: E. coli LZ3111 | [3] | A. baumannii MXX2240
< 1 µg/mL: all other assays above

CCc1c(-c2ccc3c(ccn3-c3ccccn3)c2)[nH]c(=O)c(C(=O)O)c1O [Cpd 436, 5-ethyl-4-hydroxy-2-oxo-6-(1-(pyridin-2-yl)-1H-indol-5-yl)-1,2-dihydropyridine-3-carboxylic acid]
1 to 3.5 µg/mL: [2]
< 1 µg/mL: [1]
12.5 to 150 µg/mL: all other assays above

Cc1c(-c2ccc3cnn(C)c3c2)[nH]c(=O)c(C(=O)O)c1O [Cpd 396, 4-hydroxy-5-methyl-6-(1-methyl-1H-indazol-6-yl)-2-oxo-1,2-dihydropyridine-3-carboxylic acid]
3.5 to 12.5 µg/mL: A. baumannii MXX2240
1 to 3.5 µg/mL: E. coli LZ3111
12.5 to 150 µg/mL: all other assays above

CCc1cc(C(=O)O)c(=O)[nH]c1-c1ccc2c(c1)cc(CN1CCOCC1)n2C [Cpd 137, 5-ethyl-6-(1-methyl-2-(morpholinomethyl)-1H-indol-5-yl)-2-oxo-1,2-dihydropyridine-3-carboxylic acid]
3.5 to 12.5 µg/mL: [3]
1 to 3.5 µg/mL: E. coli 25922 | [4]
< 1 µg/mL: [1]
12.5 to 150 µg/mL: all other assays above

CCc1c(-c2ccc3c4c([nH]c3c2)CCNC4)[nH]c(=O)c(C(=O)O)c1O [Cpd 450, 5-ethyl-4-hydroxy-2-oxo-6-(2,3,4,5-tetrahydro-1H-pyrido[4,3-b]indol-7-yl)-1,2-dihydropyridine-3-carboxylic acid]
3.5 to 12.5 µg/mL: [1] | [4]
12.5 to 150 µg/mL: all other assays above

Cc1c(-c2ccc3c(c2)cc(CNCCN)n3C)[nH]c(=O)c(C(=O)O)c1O [Cpd 343, 6-(2-((2-aminoethylamino)methyl)-1-methyl-1H-indol-5-yl)-4-hydroxy-5-methyl-2-oxo-1,2-dihydropyridine-3-carboxylic acid]
12.5 to 150 µg/mL: all assays above

CCNCc1c(F)c2cc(-c3[nH]c(=O)c(C(=O)O)c(O)c3CC)ccc2n1C [Cpd 369, 5-ethyl-6-(2-((ethylamino)methyl)-3-fluoro-1-methyl-1H-indol-5-yl)-4-hydroxy-2-oxo-1,2-dihydropyridine-3-carboxylic acid]
3.5 to 12.5 µg/mL: E. coli LZ3111 | A. baumannii MXX2240
< 1 µg/mL: [1] | [4]
1 to 3.5 µg/mL: E. coli 25922 | [3]
12.5 to 150 µg/mL: all other assays above

CCc1c(-c2ccc3nn(C)cc3c2)[nH]c(=O)c(C(=O)O)c1O [Cpd 393, 5-ethyl-4-hydroxy-6-(2-methyl-2H-indazol-5-yl)-2-oxo-1,2-dihydropyridine-3-carboxylic acid]
< 1 µg/mL: [1]
3.5 to 12.5 µg/mL: E. coli 25922 | E. coli LZ3111 | [3] | A. baumannii MXX2240
12.5 to 150 µg/mL: all other assays above

CCc1c(-c2cc3c(N(C)C)nc(C)cn3n2)[nH]c(=O)c(C(=O)O)c1O [Cpd 401, 6-(4-(dimethylamino)-6-methylpyrazolo[1,5-a]pyrazin-2-yl)-5-ethyl-4-hydroxy-2-oxo-1,2-dihydropyridine-3-carboxylic acid]
3.5 to 12.5 µg/mL: [1] | [2]
12.5 to 150 µg/mL: all other assays above

CCc1cc(C(=O)O)c(=O)[nH]c1-c1ccc2c(c1)cc(CN(C)Cc1ccccc1)n2C [Cpd 121, 6-(2-((benzyl(methyl)amino)methyl)-1-methyl-1H-indol-5-yl)-5-ethyl-2-oxo-1,2-dihydropyridine-3-carboxylic acid]
1 to 3.5 µg/mL: E. coli 25922 | [3]
< 1 µg/mL: [1]
3.5 to 12.5 µg/mL: [2] | [4]
12.5 to 150 µg/mL: all other assays above
